From patent US9062004B2, “Cannabinoid-2 agonists” (Allergan, Inc., priority 2010, dated 2015) come the findings set out here.

Structures are written as SMILES.

Assay [1] concerns the target human CB2 cannabinoid receptor (Homo sapiens (Human), UniProt P34972). Briefly: Radioligand binding assay, CB2 ([3H]-CP 55,940 competition). The note with it: for IC50: plasma membranes of HEK 293 EBNA cells transfected with human CB2, 0.72 nM [3H]-CP 55,940, NA = not active; for CB2 Selectivity: CB2 versus CB1 binding (ratio of CB1 IC50 to CB2 IC50). As for the experimental part:
(§1) A. Radioligand Binding Assay
(§2) Plasma membranes prepared from HEK 293 EBNA cells transfected with human CB1 or CB2 cannabinoid receptors ([…] protein, receptor concentration; PerkinElmer) were used for the radioligand binding studies. The composition of incubation buffer for CB1 assay was 50 mM Tris base, 2.5 mM EDTA, 5 mM MgCl2 and 0.5 mg/ml fatty acid free BSA and for CB2 assay was 50 mM Tris base, 2.5 mM EGTA, 5 mM MgCl2 and 1 mg/ml fatty acid free BSA; pH was adjusted to 7.4 by adding 1N HCl. Plasma membranes were diluted with incubation buffer to provide a final protein concentration of 2.4 μg (CB1) or 8 μg (CB2) per well in non-binding surface polystyrene 96-well assay plates (Corning). Compound solutions were prepared in silanized glass tubes and dispensed using pipette tips with SUPERSLIK™ surface. Competition studies were performed using a final concentration of 0.72 nM [^3H]-CP 55,940 (100-180 Ci/mmol, specific activity; PerkinElmer) against test compounds. Non-specific binding was determined using 10 uM of unlabeled CP 55,940. Incubations were performed in 96-well assay plates at a final volume of 200 ul for 90 min (CB1) or 60 min (CB2) at room temperature. Binding reactions were terminated by the addition of ice-cold incubation buffer and rapid filtration through a glass fiber filter using a cell harvester (Inotech). This was followed by 8 additional washes. The glass fiber filter (0.26 mm thickness, 1-1.5 um retention; Inotech) was presoaked in cold incubation buffer containing 0.05% polyethylenimine. The filters were oven-dried at 50° C. for 60 min and counting performed using a Beckman Coulter LS 6500 Multi-Purpose Scintillation Counter (Beckman-Coulter). Binding was determined in duplicate for at least 4 separate experiments.

The subject of assay [2] is mouse isolated vas deferens. Kind of assay: Mouse isolated vas deferens (MVD) bioassay, electrically stimulated contractions. It is filed as cell-based. The following applies: vas deferens of male Swiss Webster mice, electrically evoked contractions, NA = not active; for EC50: Mus musculus, read-out: MVD Assay EC50.
Assay [3] deals with human CB1 cannabinoid receptor (Homo sapiens (Human), UniProt P21554). Kind of assay: Radioligand binding assay, CB1 ([3H]-CP 55,940 competition). The note with it: plasma membranes of HEK 293 EBNA cells transfected with human CB1; 0.72 nM [3H]-CP 55,940; NA = not active. The protocol:
as §1, §2

human CB2 cannabinoid receptor, sequence (P34972 whole entry): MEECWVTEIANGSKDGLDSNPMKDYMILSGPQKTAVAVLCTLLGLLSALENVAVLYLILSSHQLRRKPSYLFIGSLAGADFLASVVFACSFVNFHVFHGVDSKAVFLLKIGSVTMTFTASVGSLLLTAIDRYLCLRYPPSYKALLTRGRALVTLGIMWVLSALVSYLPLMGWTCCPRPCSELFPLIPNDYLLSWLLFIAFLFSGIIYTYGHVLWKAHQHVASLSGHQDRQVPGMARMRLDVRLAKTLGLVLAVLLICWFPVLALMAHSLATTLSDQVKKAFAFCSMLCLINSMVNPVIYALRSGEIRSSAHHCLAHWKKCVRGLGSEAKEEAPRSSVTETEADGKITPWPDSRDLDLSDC
human CB1 cannabinoid receptor, sequence (P21554 whole entry): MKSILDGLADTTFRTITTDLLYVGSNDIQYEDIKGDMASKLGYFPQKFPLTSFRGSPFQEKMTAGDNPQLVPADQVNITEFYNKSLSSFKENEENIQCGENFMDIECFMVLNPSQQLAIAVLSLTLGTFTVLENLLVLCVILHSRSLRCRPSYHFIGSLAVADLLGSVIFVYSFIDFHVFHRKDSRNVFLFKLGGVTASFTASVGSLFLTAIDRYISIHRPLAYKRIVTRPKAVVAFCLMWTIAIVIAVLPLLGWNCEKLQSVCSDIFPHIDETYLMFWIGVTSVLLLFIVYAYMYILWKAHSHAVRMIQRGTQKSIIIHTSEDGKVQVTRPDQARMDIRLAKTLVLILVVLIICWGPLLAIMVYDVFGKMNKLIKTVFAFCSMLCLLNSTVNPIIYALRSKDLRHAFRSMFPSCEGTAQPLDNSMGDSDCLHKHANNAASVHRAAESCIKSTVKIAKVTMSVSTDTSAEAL

The term IC50 denotes the concentration at which inhibition is half-maximal. Lower therefore signals inhibition by little substance. What is called EC50 is the concentration at which the effect is half-maximal. `CC1(C)CC(n2ncc(O)cc2=O)CC(C)(C)C1` [Compound 1, 5-hydroxy-2-(3,3,5,5-tetramethyl-cyclohexyl)pyridazin-3-one]: in assay [1], the IC50 amounted to 1820 nM. In addition, in assay [2], the EC50 worked out at 3700 nM.
As to `CC1(C)CC(n2ncc(Cl)c(Cl)c2=O)CC(C)(C)C1` [Compound 2, 4,5-Dichloro-2-(3,3,5,5-tetramethyl-cyclohexyl)pyridazin-3-one], the “CB2 Selectivity” value in assay [1] is reported as over 26. In addition, the IC50 in assay [1] was 389 nM; in assay [3] it was over 10000 nM. Besides, in assay [2], the concentration for a half-maximal effect (EC50) was over 10000 nM.
With `CNc1cnn(C2CC(C)(C)CC(C)(C)C2)c(=O)c1Cl` [Compound 3, 4-Chloro-5-methylamino-2-(3,3,5,5-tetramethylcyclohexyl)pyridazin-3-one], in assay [1], the “CB2 Selectivity” value is reported as over 28 and the half-maximal inhibitory concentration (IC50) was 355 nM. The concentration giving a half-maximal response (EC50) in assay [2] came to 2900 nM. Further, the IC50 in assay [3] is over 10000 nM.
As for `CN(C)c1cnn(C2CC(C)(C)CC(C)(C)C2)c(=O)c1Cl` [Compound 4, 4-Chloro-5-dimethylamino-2-(3,3,5,5-tetramethylcyclohexyl) pyridazin-3-one], in assay [1], the “CB2 Selectivity” value was determined as 60 and the IC50 was found to be 17 nM. Also, the 50% effective concentration (EC50) in assay [2] was 82 nM. This compound also came in with an IC50 in assay [3] of 1020 nM.
The like results for `CCCNc1cnn(C2CC(C)(C)CC(C)(C)C2)c(=O)c1Cl` [Compound 5, 4-Chloro-5-propylamino--2-(3,3,5,5-tetramethylcyclohexyl)pyridazin-3-one] were, in that order, 189, 5.4 nM, 30 nM and 1020 nM.
As to `CNc1cnn(C2CC(C)(C)CC(C)(C)C2)c(=O)c1` [Compound 6, 5-Methylamino-2-(3,3,5,5-tetramethyl-cyclohexyl)pyridazin-3-one], in assay [1], the “CB2 Selectivity” value is over 5 and the IC50 was determined as 2090 nM. In assay [2], the EC50 stood at 10000 nM. For the same compound, the 50% inhibitory concentration (IC50) in assay [3] is over 10000 nM.
Take `CN(C)c1cnn(C2CC(C)(C)CC(C)(C)C2)c(=O)c1` [Compound 7, 5-Dimethylamino-2-(3,3,5,5-tetramethylcyclohexyl)pyridazin-3-one]: in assay [1], the “CB2 Selectivity” value is given as over 26 and the IC50 came to 380 nM. In assay [2], the concentration giving a half-maximal response (EC50) was found to be 2500 nM. Further, the IC50 in assay [3] was over 10000 nM.
As for `CCCNc1cnn(C2CC(C)(C)CC(C)(C)C2)c(=O)c1` [Compound 8, 5-Propylamino-2-(3,3,5,5-tetramethyl-cyclohexyl)pyridazin-3-one], in assay [1], the “CB2 Selectivity” value is over 147 and the 50% inhibitory concentration (IC50) worked out at 68 nM. In addition, the EC50 in assay [2] was 440 nM. In assay [3], this compound yielded an IC50 of over 10000 nM.
In turn, `CCCNc1cnn(-c2ccccc2)c(=O)c1Cl` [Compound 9, 4-Chloro-2-phenyl-5-propylamino-pyridazin-3-one] showed an IC50 in assay [1] of over 10000 nM. For the same compound, the 50% effective concentration (EC50) in assay [2] was over 10000 nM.
Turning to `CCCNc1cnn(C2CCCCC2)c(=O)c1Cl` [Compound 10, 4-Chloro-2-cyclohexyl-5-propylaminopyridazin-3-one], the half-inhibitory concentration (IC50) in assay [1] is 10000 nM. Further, the half-maximal effective concentration (EC50) in assay [2] is over 10000 nM.
With `CC1(C)CC(n2ncc(NCCN3CCOCC3)c(Cl)c2=O)CC(C)(C)C1` [Compound 11, 4-Chloro-5-(2-morpholin-4-ylethyl-amino)-2-(3,3,5,5-tetramethyl-cyclohexyl)pyridazin-3-one], in assay [1], the “CB2 Selectivity” value is on record as 48 and the concentration for half-maximal inhibition (IC50) stood at 83 nM. Besides, the EC50 in assay [2] was found to be 320 nM. Besides, the IC50 in assay [3] came out at 3980 nM.
For the compound `CN(C)CCNc1cnn(C2CC(C)(C)CC(C)(C)C2)c(=O)c1Cl` [Compound 12, 4-Chloro-5-(2-dimethylaminoethylamino)-2-(3,3,5,5-tetramethyl-cyclohexyl)pyridazin-3-one], in assay [1], the “CB2 Selectivity” value is listed as over 49 and the IC50 was determined as 204 nM. In assay [2], the EC50 came out at 2900 nM. For the same compound, the half-maximal inhibitory concentration (IC50) in assay [3] was over 10000 nM.
Regarding `CCCNc1cnn(C2CC(C)(C)CC(C)(C)C2)c(=O)c1Br` [Compound 13, 4-Bromo-5-propylamino--2-(3,3,5,5-tetramethylcyclohexyl)pyridazin-3-one], in assay [1], the “CB2 Selectivity” value is reported as 36 and the IC50 was found to be 4.8 nM. Further, the EC50 in assay [2] turned out to be 21 nM. The 50% inhibitory concentration (IC50) in assay [3] was 174 nM.
For the compound `CN(C)CCNc1cnn(C2CC(C)(C)CC(C)(C)C2)c(=O)c1Br` [Compound 14, 4-Bromo-5-(2-dimethylaminoethylamino)-2-(3,3,5,5-tetramethyl-cyclohexyl)pyridazin-3-one], in assay [1], the “CB2 Selectivity” value is reported as 177 and the IC50 is 42 nM. In assay [2], the half-maximal effective concentration (EC50) amounted to 820 nM. The same compound displayed an IC50 in assay [3] of 7410 nM.
Regarding `CC1(C)CC(n2ncc(NCCN3CCOCC3)c(Br)c2=O)CC(C)(C)C1` [Compound 15, 4-Bromo-5-(2-morpholin-4-ylethylamino)-2-(3,3,5,5-tetramethyl-cyclohexyl)pyridazin-3-one], in assay [1], the “CB2 Selectivity” value worked out at 83 and the IC50 is 22.4 nM. In addition, the EC50 in assay [2] was determined as 86 nM. The compound also registered an IC50 in assay [3] of 1860 nM.
In assay [1], `Cc1cc(C)cc(-n2ncc(N(C)C)c(Cl)c2=O)c1` [Compound 17, 4-Chloro-5-dimethylamino-2-(3,5-dimethylphenyl)-pyridazin-3-one] returned an IC50 of over 10000 nM.
In assay [1], `CN(C)c1cnn(-c2cc(C(F)(F)F)cc(C(F)(F)F)c2)c(=O)c1Cl` [Compound 21, 2-(3,5-Bistrifluoromethylphenyl)-4-chloro-5-dimethylaminopyridazin-3-one] yielded an IC50 of over 10000 nM. Also, the EC50 in assay [2] was over 10000 nM.
On to `O=c1c(Cl)c(NCCN2CCOCC2)cnn1-c1cc(C(F)(F)F)cc(C(F)(F)F)c1` [Compound 22, 2-(3,5-Bistrifluoromethylphenyl)-4-chloro-5-(2-morpholin-4-ylethyl-amino)pyridazin-3-one], for which the IC50 in assay [1] is over 10000 nM. Also, in assay [2], the half-maximal effective concentration (EC50) is over 10000 nM.
As to `CN(C)CCNc1cnn(-c2cc(C(F)(F)F)cc(C(F)(F)F)c2)c(=O)c1Cl` [Compound 23, 2-(3,5-Bistrifluoromethylphenyl)-4-chloro-5-(2-dimethylaminoethylamino)pyridazin-3-one], the “MVD assay qualitative outcome” value in assay [2] was “Increase”.
Compound `CCCNc1cnn(C(C)(C)C)c(=O)c1Cl` [Compound 24, 2-t-Butyl-4-chloro-5-propylamino-pyridazin-3-one] displayed an IC50 in assay [1] of over 10000 nM. The 50% effective concentration (EC50) in assay [2] was over 10000 nM.
On to `CCCNc1cnn(-c2cc(C)ccc2C)c(=O)c1Cl` [Compound 26, 4-Chloro-2-(2,5-dimethylphenyl)-5-propylaminopyridazin-3-one], for which, in assay [1], the half-maximal inhibitory concentration (IC50) is 10000 nM. In addition, the 50% effective concentration (EC50) in assay [2] is over 10000 nM.
`CC(C)(C)n1ncc(NCCN2CCOCC2)c(Cl)c1=O` [Compound 27, 2-t-Butyl-4-chloro-5-(2-morpholin-4-ylethylamino)-pyridazin-3-one]: in assay [1], the half-maximal inhibitory concentration (IC50) was over 10000 nM. For the same compound, in assay [2], the half-maximal effective concentration (EC50) is over 10000 nM.
Take `O=c1c(Cl)c(NCCN2CCOCC2)cnn1-c1cc(Cl)cc(Cl)c1` [Compound 28, 4-Chloro-2-(3,5-dichlorophenyl)-5-(2-morpholin-4-ylethylamino)-pyridazin-3-one]: the half-inhibitory concentration (IC50) in assay [1] was over 10000 nM. Further, the “MVD assay qualitative outcome” value in assay [2] was “Increase”.
Turning to `Cc1ccc(C)c(-n2ncc(NCCN3CCOCC3)c(Cl)c2=O)c1` [Compound 29, 4-Chloro-2-(2,5-dimethylphenyl)-5-(2-morpholin-4-ylethylamino)-pyridazin-3-one], the IC50 in assay [1] is over 10000 nM. Further, the EC50 in assay [2] was over 10000 nM.
On to `CCCNc1cnn(Cc2ccccc2)c(=O)c1Cl` [Compound 30, 2-Benzyl-4-chloro-5-propylaminopyridazin-3-one], for which the concentration for half-maximal inhibition (IC50) in assay [1] was over 10000 nM. In addition, the concentration for a half-maximal effect (EC50) in assay [2] is over 10000 nM.
On to `CCN(CC)CCNc1cnn(C2CC(C)(C)CC(C)(C)C2)c(=O)c1Cl` [Compound 32, 4-Chloro-5-(2-diethylaminoethylamino)-2-(3,3,5,5-tetramethyl-cyclohexyl)pyridazin-3-one], for which, in assay [1], the 50% inhibitory concentration (IC50) was 1290 nM. Further, the EC50 in assay [2] was determined as 10000 nM.
For the compound `CCCNc1cnn(CC(C)(C)C)c(=O)c1Cl` [Compound 33, 4-Chloro-2-(2,2-dimethylpropyl)-5-propylaminopyridazin-3-one], the EC50 in assay [2] was over 10000 nM.
In the case of `CN(C)CCn1cc2c(=O)n(C3CC(C)(C)CC(C)(C)C3)ncc2n1` [Compound 39, 2-(2-Dimethylaminoethyl)-5-(3,3,5,5-tetramethylcyclohexyl)pyrazolo[3,4-d]pyridazin-4-one], the IC50 in assay [1] turned out to be 2040 nM. Also, in assay [2], the EC50 worked out at 2900 nM.
